Source: patent publication US11478526B2, “Methods of reducing neuroinflammation or toxicity induced by amyloid beta (abeta) using glucocorticoid induced leucine zipper (GILZ) analog peptides” (INDIANA UNIVERSITY RESEARCH AND TECHNOLOGY CORPORATION, priority 2016, dated 2022)

Test system: SK-N-SH cells
Assay: MTT viability with dexamethasone
Format: cell-based, human
Details: 24 h
Protocol: Preliminary results: The expression of GILZ in human neuroblastoma cells was evaluated. […] After resting, the cells were cultured with increasing concentrations of dexamethasone (Dex: 0-10 μM) for 24 h and viability was determined by the MTT assay by measuring the absorbance of the intracellular formazon resulting from the reduction of the yellow tetrazolium MTT by the cell metabolic activity. Absorbance of vehicle treated cells was taken as 100% viable. GILZ expression was measured in protein extracts from separate SK-N-SH cultures by Western blot analysis using GILZ mAb [Santa Cruz Biotechnology, Dallas, Tex.]. Total RNA isolated from similar SK-N-SH cultures was reverse transcribed and the GILZ mRNA was amplified using the SYBR green qPCR mix (SA Biosciences, Fredrick, Md.) on the ABI Prism 7000 system (Applied Biosystem, Calif.).

Compound: C[C@@H]1C[C@H]2[C@@H]3CCC4=CC(=O)C=C[C@]4(C)[C@@]3(F)[C@@H](O)C[C@]2(C)[C@@]1(O)C(=O)CO [DEX, dexamethasone]
- toxicity (MTT viability) (1 μM): not toxic
- reduction of viability (10 μM): 25%
